Results taken from publication PMC6596218, “Anthranilic amide and imidazobenzothiadiazole compounds disrupt Mycobacterium tuberculosis membrane potential” (MedChemComm, 2019).
Converted amounts (≈) assume the structure as drawn.

Columns and labels:
M. tuberculosis = tested on: M. tuberculosis; design: method as in PMID 30501173; details: non-replicating, cited from earlier work
M. tuberculosis H37Rv = experiment: Minimum bactericidal concentration at pH 4.5 (MBC4.5), luminescence readout; type: cell-based, Mycobacterium tuberculosis; details: median, pH 4.5 phosphate citrate buffer, 7 days, 2-log reduction threshold, replicates in parentheses; for MBC: Mycobacterium tuberculosis, H37RV, 168 h
HepG2 cells = experiment: HepG2 cytotoxicity (CellTiter-Glo, 72 h); type: cell-based; details: Homo sapiens, mean ± standard deviation, replicates in parentheses
[1] = tested on: intracellular M. tuberculosis in RAW 264.7 cells; experiment: Activity against intracellular M. tuberculosis in RAW 264.7 cells; type: cell-based, Mycobacterium tuberculosis; details: RAW 264.7 cells (ATCC TIB-71)
Source text: In addition to determination of the MBC4.5 for each compound, we evaluated antitubercular activity of the compounds as measured by MIC at pH 5.6 (Table S1 ^†) and IC50 against intracellular M. tuberculosis in RAW 264.7 cells (ATCC TIB-71) (Table S2 ^†). […] General cytotoxicity against the infected RAW 264.7 cells was observed and was correlated with cytotoxicity against HepG2 cells (Table S2 ^†).

[2] = tested on: non-replicating M. tuberculosis; experiment: Non-replicating kill kinetics at pH 5.5 (CFU over 21 days); type: cell-based, Mycobacterium tuberculosis; details: single replicate; for log kill within 21 days: pH 5.5, 21 days

## O=[N+]([O-])c1cc2nc(C(F)(F)F)[nH]c2c2nsnc12 [Compound 2]
M. tuberculosis; pH 4.5 and pH 6.8, 10–100 μM, 7 days
  decrease of CFU in the culture within 7 days: > 4 logs
M. tuberculosis; pH 4.5 and pH 6.8, all concentrations 10–100 μM
  time to sterilizing the culture: ≤ 14 days
M. tuberculosis H37Rv
  MBC: 25 µM (≈ 7.23 µg/mL)
  MBC4.5: 25 (2) μM
HepG2 cells
  IC50: 83 ± 24 µM

## CCN(C)c1ccccc1C(=O)Nc1ccc(Cl)cc1Cl [Compound 11, N-(2,4-dichlorophenyl)-2-(ethyl(methyl)amino)benzamide]
[1]
  antitubercular activity against intracellular M. tuberculosis: showed antitubercular activity
M. tuberculosis H37Rv
  MBC: > 200 µM
HepG2 cells
  IC50: 69 ± 44 µM

## Cc1ccc(S(=O)(=O)Nc2ccccc2C(=O)Nc2ccc(Cl)cc2Cl)cc1 [Compound 15, N-(2,4-dichlorophenyl)-2-(4-methylphenylsulfonamido)benzamide]
[2]
  log kill within 21 days: > 3 logs
M. tuberculosis H37Rv
  MBC: > 200 µM
HepG2 cells
  IC50: 37 ± 8.5 µM

## O=C(Nc1ccccn1)c1ccccc1NS(=O)(=O)c1ccc(Br)cc1 [Compound 24, 2-(4-bromophenylsulfonamido)-N-(pyridin-2-yl)benzamide]
[2]
  log kill within 21 days: > 3 logs
M. tuberculosis H37Rv
  MBC: 113 µM (≈ 48.8 µg/mL)
HepG2 cells
  IC50: 52 ± 13 µM

## O=C(Nc1ccc(Cl)cc1)c1ccccc1NS(=O)(=O)c1ccc(Br)cc1 [Compound 3, 2-(4-bromophenylsulfonamido)-N-(4-chlorophenyl)benzamide]
[2]; pH 5.5, 7 days
  log kill within 7 days: > 3 log
[2]; pH 5.5, 14 days
  log kill at 14 days: > 4 log
M. tuberculosis H37Rv
  MBC: 50 µM (≈ 23.3 µg/mL)
HepG2 cells
  IC50: 11 ± 4.7 µM
